Assay results as given in patent US20190046469A1, “COMPOSITIONS AND METHODS FOR TREATING MOOD DISORDERS OR SKIN DISEASE OR DAMAGE” (priority 2012, published 2019).

Assays:
[1] = system: OXT (Homo sapiens oxytocin/neurophysin I prepropeptide mRNA, NM_000915); test: Full thickness tissue DNA microarray screening, OXT gene expression; type: cell-based
Excerpt: (§1) DNA microarrays were used to screen xanthohumol for changes in the expression of thousands of different genes. DNA microarrays are extremely powerful tools that allow users to analyze changes in gene expression by monitoring changes in the messenger ribonucleic acid (“mRNA”) of hundreds to thousands of genes in a single experiment. All cells function by using their genes to make protein products. This process starts by making an mRNA copy of the gene through a process called transcription. The mRNA copy is then translated into a protein that plays a functional role within the cell or the cell's environment. Since the process of gene expression is highly regulated, the amount of mRNA can be a good indicator of the level of activity for a specific gene. With the introduction of DNA microarrays, researchers can now rapidly obtain a much more global view of what is happening inside of a cell since the results of one or two array experiments can potentially generate data on changes in gene expression across the entire known human genome.
(§2) This would result in a ratio of 1. If a treatment increases the expression of a gene, then the median intensity of the feature would be greater in the scan from the red laser than the green, resulting in a ration that is greater than 1. […] These broader ranges are a more conservative judging criterion and account for possible sources of variation in fluorescence intensity that are not associated with the treatment.
(§3) In addition to the information on active ingredients and raw materials that the DNA microarray can provide, the arrays can be used to better characterize the mechanisms of action related to certain therapeutic categories. The array data also allows the verification that a gene of interest is expressed in a certain model before running an experiment. The following tables provide the data based on the ratio of means after 50 μL of a xanthohumol liquid formulation with a concentration of 5 mg/ml xanthohumol was used in the following experiment. RNA was isolated from the tissues for subsequent analysis via DNA microarrays.

[2] = system: OXTR (Homo sapiens oxytocin receptor mRNA, NM_000916); test: Full thickness tissue DNA microarray screening, OXTR gene expression; type: cell-based
Excerpt: as §1, §2, §3

[3] = 50 μL of xanthohumol liquid formulation, 5 mg/ml, full thickness tissue, >=1.3 up-regulated, <=0.7 down-regulated
[4] = 50 μL of xanthohumol liquid formulation, 5 mg/ml, green laser scan
[5] = 50 μL of xanthohumol liquid formulation, 5 mg/ml, red laser scan (treated)
[6] = ratio of means above 1.3 = up-regulated

regulation of OXTR gene (in words) [2, 6]: significantly up-regulated
SMILES: COc1cc(O)c(CC=C(C)C)c(O)c1C(=O)/C=C/c1ccc(O)cc1 [xanthohumol]
Ratio of Means (OXT) [1, 3]: 2.488
F532 Median (OXT) [1, 4]: 78
F635 Median (OXT) [1, 5]: 171
regulation of OXT gene (in words) [1, 6]: significantly up-regulated
Ratio of Means (OXTR) [2, 3]: 3.5
F532 Median (OXTR) [2, 4]: 43
F635 Median (OXTR) [2, 5]: 53
up-regulation of OXTR ([2]; DNA microarray): greater than 50%
